Source: ChEMBL document CHEMBL1201862, “PubChem BioAssay data set” (2004)
Several values for one entry are separate records, joined by “and”; a condition that tells them apart may be missing. Equal values may be shown once.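 Method: 48-hour compound exposure of cells in 96-well plates, five concentrations, linear interpolation of endpoints. Here, GI50 denotes the concentration required for 50% inhibition of growth.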 Activity calls are given as the source filed them. Rule as the data show it: active = GI50 up to about 1.1 µM and inactive = higher.

Columns and labels:
Assay in all cases: growth of human tumour cells (NCI), 48 h
UO-31 = system: UO-31
786-0 = system: 786-0
A498 = system: A498
A549 = system: A549
ACHN = system: ACHN
CAKI-1 = system: CAKI-1
CCRF-CEM = system: CCRF-CEM
COLO 205 = system: COLO 205
DU-145 = system: DU-145
EKVX = system: EKVX
HCC 2998 = system: HCC 2998
HCT-116 = system: HCT-116
HCT-15 = system: HCT-15
HL-60 = system: HL-60
HOP-62 = system: HOP-62
HOP-92 = system: HOP-92
HT-29 = system: HT-29
Hs-578T = system: Hs-578T
IGROV-1 = system: IGROV-1
K562 = system: K562
KM12 = system: KM12
LOX IMVI = system: LOX IMVI
M14 = system: M14
MCF7 = system: MCF7
MDA-MB-231 = system: MDA-MB-231
MDA-MB-435 = system: MDA-MB-435
MDA-N = system: MDA-N
MOLT-4 = system: MOLT-4
Malme-3M = system: Malme-3M
NCI-H226 = system: NCI-H226
NCI-H23 = system: NCI-H23
NCI-H460 = system: NCI-H460
NCI-H522 = system: NCI-H522
NCI/ADR-RES = system: NCI/ADR-RES
OVCAR-3 = system: OVCAR-3
OVCAR-4 = system: OVCAR-4
OVCAR-5 = system: OVCAR-5
OVCAR-8 = system: OVCAR-8
PC-3 = system: PC-3
RPMI-8226 = system: RPMI-8226
RXF 393 = system: RXF 393
SF-268 = system: SF-268
SF-295 = system: SF-295
SF-539 = system: SF-539
SK-MEL-28 = system: SK-MEL-28
SK-MEL-2 = system: SK-MEL-2
SK-MEL-5 = system: SK-MEL-5
SK-OV-3 = system: SK-OV-3
SN12C = system: SN12C
SNB-19 = system: SNB-19
SNB-75 = system: SNB-75
SR = system: SR
SW-620 = system: SW-620
T47D = system: T47D
TK-10 = system: TK-10
U-251 = system: U-251
UACC-257 = system: UACC-257
UACC-62 = system: UACC-62
BT-549 = system: BT-549

COc1ccc(-c2cc(-c3ccccc3)c(C#N)c(=O)n2C2OC(COC(C)=O)C(OC(C)=O)C(OC(C)=O)C2OC(C)=O)cc1 (stereo not given)
GI50 (UO-31): 67.6 µM (inactive) and 42.4 µM (inactive)

O=C1OC[C@@H]2Cc3c([nH]c4ccccc34)[C@@H](c3ccc(O)cc3)N12
GI50 (786-0): 33.9 µM (inactive)
GI50 (A498): 41.7 µM (inactive)
GI50 (A549): 26.8 µM (inactive)
GI50 (ACHN): 23.7 µM (inactive)
GI50 (CAKI-1): 42.8 µM (inactive)
GI50 (CCRF-CEM): 30.1 µM (inactive)
GI50 (COLO 205): 22.4 µM (inactive)
GI50 (DU-145): 40.3 µM (inactive)
GI50 (EKVX): 36.3 µM (inactive)
GI50 (HCC 2998): 38.4 µM (inactive)
GI50 (HCT-116): 18.7 µM (inactive)
GI50 (HCT-15): 37.8 µM
GI50 (HL-60): 45 µM (inactive)
GI50 (HOP-62): 35.6 µM (inactive)
GI50 (HOP-92): 96.8 µM (inactive)
GI50 (HT-29): 34.9 µM (inactive)
GI50 (Hs-578T): 88.3 µM (inactive)
GI50 (IGROV-1): 24.8 µM (inactive)
GI50 (K562): 32.1 µM (inactive)
GI50 (KM12): 22.8 µM (inactive)
GI50 (LOX IMVI): 21 µM (inactive)
GI50 (M14): 23.1 µM (inactive)
GI50 (MCF7): 36.6 µM (inactive)
GI50 (MDA-MB-231): 29.6 µM (inactive)
GI50 (MDA-MB-435): 24.7 µM (inactive)
GI50 (MDA-N): 33 µM (inactive)
GI50 (MOLT-4): 31.3 µM (inactive)
GI50 (Malme-3M): 27.2 µM (inactive)
GI50 (NCI-H226): 29 µM (inactive)
GI50 (NCI-H23): 19.3 µM (inactive)
GI50 (NCI-H460): 28.7 µM (inactive)
GI50 (NCI-H522): 29.3 µM (inactive)
GI50 (NCI/ADR-RES): 34.7 µM (inactive)
GI50 (OVCAR-3): 17.4 µM (inactive)
GI50 (OVCAR-4): 32.4 µM (inactive)
GI50 (OVCAR-5): 39.4 µM (inactive)
GI50 (OVCAR-8): 30.1 µM (inactive)
GI50 (PC-3): 24 µM (inactive)
GI50 (RPMI-8226): 35.8 µM (inactive)
GI50 (RXF 393): 17.3 µM (inactive)
GI50 (SF-268): 42.6 µM (inactive)
GI50 (SF-295): 26.4 µM (inactive)
GI50 (SF-539): 24.4 µM (inactive)
GI50 (SK-MEL-28): 54.6 µM (inactive)
GI50 (SK-MEL-2): 22 µM (inactive)
GI50 (SK-MEL-5): 17.2 µM (inactive)
GI50 (SK-OV-3): > 56.8 µM (inactive)
GI50 (SN12C): 41.1 µM (inactive)
GI50 (SNB-19): 54.2 µM (inactive)
GI50 (SNB-75): 17 µM (inactive)
GI50 (SR): 39.1 µM (inactive)
GI50 (SW-620): 54.1 µM (inactive)
GI50 (T47D): 51.5 µM (inactive)
GI50 (TK-10): 34.7 µM (inactive)
GI50 (U-251): 39.2 µM (inactive)
GI50 (UACC-257): 29.9 µM (inactive)
GI50 (UACC-62): 29.9 µM (inactive)
GI50 (UO-31): 30.6 µM (inactive)

COc1cccc(-c2[nH]c3cc4c(cc3c(=O)c2C(=O)O)OCO4)c1
GI50 (786-0): 44.8 µM (inactive)
GI50 (A498): 34.4 µM (inactive)
GI50 (A549): 44.7 µM (inactive)
GI50 (ACHN): 86.7 µM (inactive)
GI50 (BT-549): 51.3 µM (inactive)
GI50 (CAKI-1): 72.8 µM (inactive)
GI50 (CCRF-CEM): 27.4 µM (inactive)
GI50 (COLO 205): 26.5 µM (inactive)
GI50 (DU-145): 38.7 µM (inactive)
GI50 (EKVX): 79.1 µM (inactive)
GI50 (HCC 2998): 32.8 µM (inactive)
GI50 (HCT-116): 32.8 µM (inactive)
GI50 (HCT-15): 28.4 µM
GI50 (HOP-62): 62.8 µM (inactive)
GI50 (HOP-92): 27.5 µM (inactive)
GI50 (HT-29): 34.2 µM (inactive)
GI50 (IGROV-1): 37.8 µM (inactive)
GI50 (K562): 34.5 µM (inactive)
GI50 (KM12): 36.7 µM (inactive)
GI50 (LOX IMVI): 42.3 µM (inactive)
GI50 (M14): 26 µM (inactive)
GI50 (MCF7): 41 µM (inactive)
GI50 (MDA-MB-231): 57.5 µM (inactive)
GI50 (MDA-MB-435): 8.39 µM (inactive)
GI50 (MDA-N): 9.84 µM (inactive)
GI50 (MOLT-4): 24.2 µM (inactive)
GI50 (NCI-H226): 43.5 µM (inactive)
GI50 (NCI-H23): 31.9 µM (inactive)
GI50 (NCI-H460): 43.7 µM (inactive)
GI50 (NCI/ADR-RES): 17.8 µM (inactive)
GI50 (OVCAR-3): 44.4 µM (inactive)
GI50 (OVCAR-4): 28.6 µM (inactive)
GI50 (OVCAR-5): > 100 µM (inactive)
GI50 (OVCAR-8): 23.2 µM (inactive)
GI50 (PC-3): 57.5 µM (inactive)
GI50 (RPMI-8226): 41.2 µM (inactive)
GI50 (RXF 393): 39.2 µM (inactive)
GI50 (SF-295): 23.8 µM (inactive)
GI50 (SF-539): 28.8 µM (inactive)
GI50 (SK-MEL-28): 37 µM (inactive)
GI50 (SK-MEL-2): 78.7 µM (inactive)
GI50 (SK-MEL-5): 31 µM (inactive)
GI50 (SN12C): 40.6 µM (inactive)
GI50 (SNB-19): 43.4 µM (inactive)
GI50 (SNB-75): 84.1 µM (inactive)
GI50 (SR): 8.73 µM (inactive)
GI50 (SW-620): 29 µM (inactive)
GI50 (T47D): > 100 µM (inactive)
GI50 (U-251): 37.2 µM (inactive)
GI50 (UACC-257): > 100 µM (inactive)
GI50 (UACC-62): 33.6 µM (inactive)
GI50 (UO-31): 49.2 µM (inactive)

CC(=O)OC(C)(C)/C(C)=C/C(=O)O[C@H]1C(=O)O[C@@H]2C[C@H]3[C@H](C)C(=O)C(O[C@@H]4O[C@H](CO)[C@@H](O)[C@H](O)[C@H]4O)=C[C@]3(C)[C@H]3[C@@H](O)[C@H](O)[C@@]4(C(=O)O)OC[C@]32[C@@H]14 [Bruceoside-F]
GI50 (LOX IMVI): 81.3 µM (inactive)
GI50 (SK-MEL-28): 79.3 µM (inactive)
GI50 (SK-MEL-5): > 10 µM (inactive)
GI50 (U-251): 87.3 µM (inactive)
